From patent EP4782453A1 (Beyang Therapeutics Co., Ltd., priority 2023, dated 2025)
Like-named read-outs stand apart in the source and are kept apart here.

Columns and labels:
[1] = system: MOLM-13 (carrying MLL-AF9); experiment: Inhibition of proliferation of human tumor cells (Alamar Blue, 7 days), MOLM-13; format: cell-based; conditions: Homo sapiens, MOLM-13 cells (carrying MLL-AF9), method calls the value GI50
Description: Experimental Example 2: Evaluation of Inhibitory Activity of Compounds Against Proliferation of Human Tumor Cells
• Human acute lymphoblastic leukemia cells MV-4-11, purchased from American Type Culture Collection, Catalog Number: CRL-9591; • Human acute myeloid leukemia cells MOLM-13, purchased from COBIOER BIOSCIENCES CO., LTD, Catalog Number: CBP60678; • Human acute myeloid leukemia cells KG-1a, purchased from American Type Culture Collection, Catalog Number: CCL-246.1; • Inverted Microscope, purchased from Olympus Tokyo; • Countess™ Automated Cell Counter, purchased from Invitrogen, Model: C10281; and • Multilabel Reader, purchased from Bio-Tek, Model: Synergy HT.
MV-4-11 cells were cultured in an IMDM medium containing 10% fetal bovine serum, KG-a cells were cultured in an IMDM medium containing 20% fetal bovine serum, or MOLM-13 cells were cultured in an RPMI-1640 medium containing 20% fetal bovine serum, each supplemented with 100 U·mL^-1 penicillin and 100 µg·mL^-1 streptomycin. These cells were cultured at 37°C with 5% CO2. The suspensions of individual cell lines were prepared in their respective media and seeded into 96-well plates at a density of 4,000 cells/well for MV-4-11 and MOLM-13 cells, or 3,000 cells/well for KG-1a cells. On the day of the experiment, a compound stock solution was diluted in a 3-fold or 4-fold gradient using DMSO. Each gradient-diluted stock solution was then further diluted 250-fold with a complete medium to prepare a series of working solutions at different concentrations. Subsequently, 100 µL of working solution (containing a 2-fold concentration series of the test compound) was added to each well, with duplicate wells set up for each concentration.
Seven days after compound addition (on Day 7), an Alamar Blue assay reagent (MCE, HY-111391 / CS-0040317) was added to measure the fluorescence intensity in each well. Wells containing the cells in the growth medium supplemented with 0.1% DMSO (Day 7) served as high-read control wells. The readouts from the wells containing the cells in the growth medium supplemented with 0.1% DMSO on the day of compound addition (Day 0) served as low-reading control well. GraphPad Prism software was used to calculate the concentration required to inhibit 50% of cell proliferation (GI50), which serves as a cell proliferation inhibition activity index.

Menin-MLL = target: T1, Menin-MLL (Homo sapiens, UniProt O00255); experiment: Inhibitory activity against Menin-MLL binding (fluorescence polarization); conditions: 150 nM His-Menin, 15 nM FITC-MLL, 25°C for 60 min
T1 construct: His-Menin (M1-L615 end); purchased BIORTUS BP9210
T1 sequence (O00255 1-615 isoform O00255-1): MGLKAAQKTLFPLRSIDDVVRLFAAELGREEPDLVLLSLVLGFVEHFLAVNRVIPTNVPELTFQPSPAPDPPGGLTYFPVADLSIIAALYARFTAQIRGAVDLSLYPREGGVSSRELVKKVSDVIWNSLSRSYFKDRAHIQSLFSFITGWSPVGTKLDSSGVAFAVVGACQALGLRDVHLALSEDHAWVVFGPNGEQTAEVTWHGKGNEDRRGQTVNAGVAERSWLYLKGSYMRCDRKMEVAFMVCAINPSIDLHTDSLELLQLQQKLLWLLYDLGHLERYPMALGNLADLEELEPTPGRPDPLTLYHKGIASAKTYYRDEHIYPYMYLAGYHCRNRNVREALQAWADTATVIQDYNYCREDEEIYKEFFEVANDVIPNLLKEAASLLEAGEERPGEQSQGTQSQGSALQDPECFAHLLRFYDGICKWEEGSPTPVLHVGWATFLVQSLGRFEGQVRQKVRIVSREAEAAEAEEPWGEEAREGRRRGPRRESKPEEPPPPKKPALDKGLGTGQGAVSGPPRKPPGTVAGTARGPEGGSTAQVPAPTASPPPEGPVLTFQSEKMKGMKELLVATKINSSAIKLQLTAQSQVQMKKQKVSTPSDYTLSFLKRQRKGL
Summary of the method: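 Fluorescence polarization competition: compound and 150 nM His-tagged menin (residues M1-L615) sit 15 min at 25 °C in pH 7.5 HEPES buffer with NaCl, DTT and BSA; 15 nM FITC-labelled MLL peptide then binds for 60 min. IC50 fitted sigmoidally from mP values, duplicate wells.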

[2] = fluorescence polarization, read-out: Menin-MLL IC50
[3] = Menin-MLL IC50, fluorescence polarization

Compound | IC50 (Menin-MLL; [2]) | also measured
CCN(C(=O)c1cc(F)ccc1-c1cc(C2CN([C@H](CN3CCN(CCOC)CC3)C(C)C)C2)cn2c(C)ncc12)C(C)C [Example 430] | 8.4 nM | IC50 ([1]; 168 h): 46 nM
CCN(C(=O)c1cc(F)ccc1-c1cc(C2CN(C(CC[C@@H]3COCCN3)C(C)C)C2)cc2c1cnn2C)C(C)C (stereo partly drawn) [Example 458, N-ethyl-5-fluoro-2-[1-methyl-6-(1-{4-methyl-1-[(3R)-morpholin-3-yl]pentan-3-yl}azacyclobutan-3-yl}-1H-indazol-4-yl)-N-(isopropyl)benzamide] | 6.4 nM | IC50 ([1]; 168 h): 31 nM
COC[C@H]1CN(CCC[C@H](C(C)C)N2CC(c3cc(-c4ccc(F)cc4C(=O)N(C(C)C)C(C)C)c4cnc(C)n4c3)C2)CCN1 [Example 504-2, 5-fluoro-2-(6-{1-[(3R)-6-[(3R)-3-(methoxymethyl)piperazin-1-yl]-2-methylhexan-3-yl]azacyclobutan-3-yl}-3-methylimidazo[1,5-a]pyridin-8-yl)-N,N-di(isopropyl)benzamide] | 1.2 nM | IC50 ([1]; 168 h): 13 nM
CC(=O)N1CC2(CN(CCC[C@H](C(C)C)N3CC(c4cc(-c5ccc(F)cc5C(=O)N5CCOC[C@H]5C)c5c(F)nc(C)n5c4)C3)C2)C1 [Example 370, 1-{6-[(4R)-4-[3-(1-fluoro-8-{4-fluoro-2-[(3R)-3-methylmorpholin-4-carbonyl]phenyl}-3-methylimidazo[1,5-a]pyridin-6-yl)azacyclobutan-1-yl]-5-methylhexyl]-2,6-diazaspiro[3.3]heptan-2-yl}ethan-1-one] | 3.8 nM | IC50 ([1]; 168 h): 4.2 nM
CCN(C(=O)c1cc(F)ccc1-c1cc(C2CN([C@H](CCCN3CCN(C4(CO)COC4)CC3)C(C)C)C2)cn2c(C)ncc12)C(C)C [Example 474, N-ethyl-5-fluoro-2-(6-{1-[(3R)-6-{4-[3-(hydroxymethyl)oxacyclobutan-3-yl]piperazin-1-yl}-2-methylhexan-3-yl]azacyclobutan-3yl}-3-methylimidazo[1,5-a]pyridin-8-yl)-N-(isopropyl)benzamide] |  | IC50 ([1]; MOLM-13, 168 h): 11 nM; IC50 (Menin-MLL; [3]): 0.9 nM
Cc1ncc2c(-c3ccc(F)cc3C(=O)N(CC(F)F)C(C)C)cc(C3CN([C@H](CCCN4CCN(CCO)CC4)C(C)C)C3)cn12 [Example 459-1, N-(2,2-difluoroethyl)-5-fluoro-2-(6-{1-[(3R)-6-[4-(2-hydroxylethyl)piperazin-1-yl]-2-methylhexan-3-yl]azacyclobutan-3-yl}-3-methyl-imidazo[1,5-a]pyridin-8-yl)-N-(isopropyl)benzamide] | 1.9 nM | IC50 ([1]; 168 h): 4.7 nM
CCN(C(=O)c1cc(F)ccc1-c1cc(C2CCN(C[C@H]3CC[C@H](NC(=O)OC(C)(C)C)CC3)C2)cn2cncc12)C(C)C (mixture of isomers) [Example 21, N-[(1r,4r)-4-{[3-(8-{2-[ethyl(isopropyl)aminoformyl]-4-fluorophenyl}imidazo[1,5-a]pyridin-6-yl)pyrrolidin-1-yl]methyl}cyclohexyl]tert-butyl carbamate] | 18.5 nM | 
Cc1ncc2c(-c3ccc(F)cc3C(=O)N(CC(F)F)C(C)C)cc(N3CCN(C(=O)C4NC5CCC4CC5)CC3)cn12 [Example 94, N-(2,2-difluoroethyl)-5-fluoro-2-(3-methyl-6-{4-[(1R,3S,4S)-2-azabicyclo[2.2.2]octan-3-carbonyl]piperazin-1-yl}imidazo[1,5-a]pyridin-8-yl)-N-(isopropyl)benzamide] |  | IC50 (Menin-MLL; [3]): 44.5 nM
CCN(C(=O)c1cc(F)ccc1-c1cc(C2CN([C@@H](CCCN3CCN(C(=O)OC(C)(C)C)CC3)C(C)C)C2)cn2c(C)ncc12)C(C)C [Example 454-2, 4-[(4S)-4-[3-(8-{2-[ethyl(isopropyl)aminoformyl]-4-fluorophenyl}-3-methylimidazo[1,5-a]pyridin-6-yl)azacyclobutan-1-yl]-5-methylhexyl]piperazin-1-tert-butyl carboxylate] | 80 nM | 
Cc1nc(F)c2c(-c3ccc(F)cc3C(=O)N3CCOC[C@H]3C)cc(C3CN(CC4CCN(S(C)(=O)=O)CC4)C3)cn12 [Example 273] | 44 nM | 
CC(C)N(CC(F)F)C(=O)c1cc(F)ccc1-c1cc(C2CCN(C[C@@H]3CC[C@@H](NC(=O)OC(C)(C)C)CO3)C2)cc2c1cnn2C (stereo partly drawn) [Example 158] | 165 nM | 
CCN(C(=O)c1cc(F)ccc1-c1cc(N2CCN(C(=O)[C@@H]3CCC(C)(C)N3)CC2)cn2c(C)nc(Cl)c12)C(C)C [Example 111] |  | IC50 (Menin-MLL; [3]): 38 nM
Cc1nc(F)c2c(-c3ccc(F)cc3C(=O)N3[C@H](C)COC[C@H]3C)cc(C3CN(CC4(O)CCOCC4)C3)cn12 [Example 220, 4-{[3-(8-{2-[(3R,5R)-3,5-dimethylmorpholin-4-carbonyl]-4-fluorophenyl}-1-fluoro-3-methylimidazo[1,5-a]pyridin-6-yl)azacyclobutan-1-yl]methyl}oxacyclohexan-4-ol] | 167 nM | 
Cc1nc(F)c2c(-c3ccc(F)cc3C(=O)N3CCOC[C@H]3C)cc(C3CN([C@H](CN4CCN(C(=O)OC(C)(C)C)CC4)C(C)C)C3)cn12 [Example 366-2, 4-[(2S)-2-[3-(1-fluoro-8-{4-fluoro-2-[(3R)-3-methylmorpholin-4-carbonyl]phenyl}-3-methylimidazo[1,5-a]pyridin-6-yl)azacyclobutan-1-yl]-3-methylbutyl]piperazin-1-tert-butyl carboxylate] | 38.5 nM | 
CCN(C(=O)c1cc(F)ccc1-c1cc(C2CN(C(=O)[C@@H]3CCCN3)C2)cn2c(C)nc(Cl)c12)C(C)C [Example 125] |  | IC50 (Menin-MLL; [3]): 26.5 nM
Cc1ncc2c(-c3ccc(F)cc3C(=O)N(C)C(C)C)cc(C3CN([C@@H](CCCN4CCN(CCO)CC4)C(C)C)C3)cn12 [Example 448-1] | 120 nM | 
CCN(C(=O)c1cc(F)ccc1-c1cc(C2CN([C@@H](CCCN3CCN(C)CC3)C(C)C)C2)cn2c(C)nc(F)c12)C(C)C [Example 312-1] | 32 nM | 
Cc1ncc2c(-c3ccc(F)cc3C(=O)N(CC(F)F)C(C)C)cc(N3CCN(C(=O)[C@@H]4CCC(c5cccc(F)c5)N4)CC3)cn12 (stereo partly drawn) [Example 140, N-(2,2-difluoroethyl)-5-fluoro-2-(6-{4-[(2S)-5-(3-fluorophenyl)pyrrolidin-2-carbonyl]piperazin-1-yl}-3-methylimidazo[1,5-a]pyridin-8-yl)-N-(isopropyl)benzamide] | 161 nM | 
CCN(C(=O)c1cc(F)ccc1-c1cc(C2CN([C@H](CN3C[C@@H](O)[C@H](O)C3)C(C)C)C2)cn2c(C)ncc12)C(C)C [Example 446-1, 2-(6-{1-[(2S)-1-[(3R,4R)-3,4-dihydroxylpyrrolidin-1-yl]-3-methylbutan-2-yl]azacyclobutan-3-yl}-3-methylimidazo[1,5-a]pyridin-8-yl)-N-ethyl-5-fluoro-N-(isopropyl)benzamide] | 7.3 nM | 
CCC(=O)N1CCN(CCC[C@H](C(C)C)N2CC(c3cc(-c4ccc(F)cc4C(=O)N4CCOC[C@H]4C)c4c(F)nc(C)n4c3)C2)CC1 [Example 335] | 8 nM | 
CCN(C(=O)c1cc(F)ccc1-c1cc(C2CCN(C[C@]3(O)CC[C@@H](NS(=O)(=O)CC)CC3)C2)cc2c1cnn2C)C(C)C (stereo partly drawn) [Compound 55, N-ethyl-5-fluoro-2-[1-methyl-6-(1-{[(1s,4s)-4-ethanesulfonamido-1-hydroxylcyclohexyl]methyl}pyrrolidin-3-yl)-1H-indazol-4-yl]-N-(isopropyl)benzamide] |  | IC50 (Menin-MLL; [3]): 21 nM
